Source: article PMC5218480 (PLoS ONE, 2017)

Test system: MV-4-11 cells
Experiment: Gene expression microarray analysis (Affymetrix PrimeView) and GSEA
Format: cell-based, human
Design: RFU PODN (11730768_x_at) / Fold change /veh PODN (11730768_x_at) / RFU LINC00158 (11744669_a_at) / Fold change /veh LINC00158 (11744669_a_at) / RFU DUSP10 (11751237_a_at) / Fold change /veh DUSP10 (11751237_a_at) / RFU ID3 (11757404_x_at) / Fold change /veh ID3 (11757404_x_at) / RFU PLEKHG5 (11737974_s_at) / Fold change /veh PLEKHG5 (11737974_s_at) / RFU LRRC4B (11730491_at) / Fold change /veh LRRC4B (11730491_at) / RFU GIMAP4 (11747438_a_at) / Fold change /veh GIMAP4 (11747438_a_at) / RFU KRT8 (11758183_x_at) / Fold change /veh KRT8 (11758183_x_at) / RFU CNN1 (11734310_a_at) / Fold change /veh CNN1 (11734310_a_at) / RFU VPS37D (11726825_at) / Fold change /veh VPS37D (11726825_at) / RFU C10orf10 (11716522_x_at) / Fold change /veh C10orf10 (11716522_x_at) / RFU KIR2DL2 /// KIR2DL4 /// KIR2DL5A /// KIR2DL5B /// KIR2DS1 /// KIR2DS2 /// KIR2DS3 /// KIR2DS4 /// KIR3DL3 /// KIR3DL3 /// KIR3DS1 (11738374_at) / Fold change /veh KIR2DL2 /// KIR2DL4 /// KIR2DL5A /// KIR2DL5B /// KIR2DS1 /// KIR2DS2 /// KIR2DS3 /// KIR2DS4 /// KIR3DL3 /// KIR3DL3 /// KIR3DS1 (11738374_at) / RFU C1QL1 (11718748_at) / Fold change /veh C1QL1 (11718748_at) / RFU TMPRSS4 (11747572_a_at) / Fold change /veh TMPRSS4 (11747572_a_at) / RFU HAMP (11756126_x_at) / Fold change /veh HAMP (11756126_x_at) / RFU RNFT2 (11725882_a_at) / Fold change /veh RNFT2 (11725882_a_at) / RFU NR4A2 (11747474_a_at) / Fold change /veh NR4A2 (11747474_a_at) / RFU ABCC12 (11746883_a_at) / Fold change /veh ABCC12 (11746883_a_at) / RFU TMEM136 (11760407_x_at) / Fold change /veh TMEM136 (11760407_x_at) / RFU CLDN22 /// WWC2 (11732394_at) / Fold change /veh CLDN22 /// WWC2 (11732394_at) / RFU HLA-DPB1 (11760878_x_at) / Fold change /veh HLA-DPB1 (11760878_x_at) / RFU SPINT1 (11716480_a_at) / Fold change /veh SPINT1 (11716480_a_at) / RFU GAP43 (11754022_s_at) / Fold change /veh GAP43 (11754022_s_at) / RFU A4GNT (11735810_at) / Fold change /veh A4GNT (11735810_at) / RFU PRB3 (11715151_x_at) / Fold change /veh PRB3 (11715151_x_at) / RFU TUBB4B (11761932_at) / Fold change /veh TUBB4B (11761932_at) / RFU CAPN14 (11732068_a_at) / Fold change /veh CAPN14 (11732068_a_at) / RFU TMCC2 (11721928_a_at) / Fold change /veh TMCC2 (11721928_a_at) / RFU IRGQ (11745062_a_at) / Fold change /veh IRGQ (11745062_a_at) / RFU FAM174B (11720279_a_at) / Fold change /veh FAM174B (11720279_a_at) / RFU TMPRSS4 (11748680_a_at) / Fold change /veh TMPRSS4 (11748680_a_at) / RFU FAM212B (11763350_a_at) / Fold change /veh FAM212B (11763350_a_at) / RFU PLEKHG5 (11743358_a_at) / Fold change /veh PLEKHG5 (11743358_a_at) / RFU ZSCAN30 (11745921_a_at) / Fold change /veh ZSCAN30 (11745921_a_at) / RFU CMKLR1 (11741424_a_at) / Fold change /veh CMKLR1 (11741424_a_at) / RFU LOC101060620 /// MAPK8IP1 (11723275_at) / Fold change /veh LOC101060620 /// MAPK8IP1 (11723275_at) / RFU SPTSSB (11747773_x_at) / Fold change /veh SPTSSB (11747773_x_at) / RFU PRSS12 (11739890_at) / Fold change /veh PRSS12 (11739890_at) / RFU BIN1 (11741810_x_at) / Fold change /veh BIN1 (11741810_x_at) / RFU WNT11 (11732464_a_at) / Fold change /veh WNT11 (11732464_a_at) / RFU C10orf10 (11716521_a_at) / Fold change /veh C10orf10 (11716521_a_at) / RFU C5orf56 (11738089_at) / Fold change /veh C5orf56 (11738089_at) / RFU CYB561 (11721691_x_at) / Fold change /veh CYB561 (11721691_x_at) / RFU ANKRD19P (11752326_a_at) / Fold change /veh ANKRD19P (11752326_a_at) / RFU OR2T12 /// OR2T33 /// OR2T8 (11738714_s_at) / Fold change /veh OR2T12 /// OR2T33 /// OR2T8 (11738714_s_at) / RFU VCAN (11748164_a_at) / Fold change /veh VCAN (11748164_a_at) / RFU JSRP1 (11732532_at) / Fold change /veh JSRP1 (11732532_at) / RFU KRTAP10-11 (11738290_x_at) / Fold change /veh KRTAP10-11 (11738290_x_at) / RFU MYO3A (11730013_a_at) / Fold change /veh MYO3A (11730013_a_at) / RFU EBF3 (11725865_a_at) / Fold change /veh EBF3 (11725865_a_at) / RFU CAMK2N1 (11719241_x_at) / Fold change /veh CAMK2N1 (11719241_x_at) / RFU C5orf56 (11738088_a_at) / Fold change /veh C5orf56 (11738088_a_at) / RFU OLFML3 (11715873_a_at) / Fold change /veh OLFML3 (11715873_a_at) / RFU LOC100653217 /// NTM (11731650_a_at) / Fold change /veh LOC100653217 /// NTM (11731650_a_at) / RFU MAPK11 (11762145_a_at) / Fold change /veh MAPK11 (11762145_a_at) / RFU FIZ1 (11724087_x_at) / Fold change /veh FIZ1 (11724087_x_at) / RFU OASL (11726364_x_at) / Fold change /veh OASL (11726364_x_at) / RFU SOX15 (11748057_x_at) / Fold change /veh SOX15 (11748057_x_at) / RFU CD79A (11719716_a_at) / Fold change /veh CD79A (11719716_a_at) / RFU HIST1H1D (11736915_at) / Fold change /veh HIST1H1D (11736915_at) / RFU CASKIN2 (11723855_a_at) / Fold change /veh CASKIN2 (11723855_a_at) / RFU LOC730098 (11760151_x_at) / Fold change /veh LOC730098 (11760151_x_at) / RFU OR4N2 (11742367_at) / Fold change /veh OR4N2 (11742367_at) / RFU PRRT2 (11749266_a_at) / Fold change /veh PRRT2 (11749266_a_at) / RFU SNX32 (11753110_a_at) / Fold change /veh SNX32 (11753110_a_at) / RFU CDHR5 (11726645_a_at) / Fold change /veh CDHR5 (11726645_a_at) / RFU RCAN1 (11760418_a_at) / Fold change /veh RCAN1 (11760418_a_at) / RFU FAM167A (11723789_a_at) / Fold change /veh FAM167A (11723789_a_at) / RFU FAM26E (11764081_at) / Fold change /veh FAM26E (11764081_at) / RFU ISYNA1 (11749810_s_at) / Fold change /veh ISYNA1 (11749810_s_at) / RFU ACY1 (11761880_at) / Fold change /veh ACY1 (11761880_at) / RFU 11764098_at / Fold change /veh 11764098_at / RFU SAMD14 (11745864_x_at) / Fold change /veh SAMD14 (11745864_x_at) / RFU NPB (11741838_a_at) / Fold change /veh NPB (11741838_a_at) / RFU TMPRSS6 (11731388_a_at) / Fold change /veh TMPRSS6 (11731388_a_at) / RFU KRTAP10-2 (11738614_at) / Fold change /veh KRTAP10-2 (11738614_at) / RFU ARHGAP8 /// PRR5-ARHGAP8 (11727945_x_at) / Fold change /veh ARHGAP8 /// PRR5-ARHGAP8 (11727945_x_at) / RFU KRTAP5-7 /// NADSYN1 (11734609_at) / Fold change /veh KRTAP5-7 /// NADSYN1 (11734609_at) / RFU RASL12 (11751679_a_at) / Fold change /veh RASL12 (11751679_a_at) / RFU CDKN2B (11736163_a_at) / Fold change /veh CDKN2B (11736163_a_at) / RFU PRF1 (11729649_at) / Fold change /veh PRF1 (11729649_at) / RFU, ZNF638 /// ZNF638-IT1 / Fold change vs veh, ZNF638 /// ZNF638-IT1 / RFU, PANK3 / Fold change vs veh, PANK3 / RFU, SH3YL1 / Fold change vs veh, SH3YL1 / RFU, ZEB2 / Fold change vs veh, ZEB2 / RFU, NRIP1 / Fold change vs veh, NRIP1 / RFU, PTTG1IP / Fold change vs veh, PTTG1IP / RFU, CAPN2 / Fold change vs veh, CAPN2 / RFU, MED14 / Fold change vs veh, MED14 / RFU, SNORA58 / Fold change vs veh, SNORA58 / RFU, C1orf63 / Fold change vs veh, C1orf63 / RFU, LRRFIP1 / Fold change vs veh, LRRFIP1 / RFU, NDUFAF7 / Fold change vs veh, NDUFAF7 / RFU, SLC12A2 / Fold change vs veh, SLC12A2 / RFU, IBTK / Fold change vs veh, IBTK / RFU, ESF1 / Fold change vs veh, ESF1 / Fold change vs veh, TMEM50B / RFU, TAOK1 / Fold change vs veh, TAOK1 / RFU, ACBD3 / Fold change vs veh, ACBD3 / RFU, TMA16 / Fold change vs veh, TMA16 / RFU, RWDD3 / Fold change vs veh, RWDD3 / RFU, BCAT1 / Fold change vs veh, BCAT1 / RFU, EDEM3 / Fold change vs veh, EDEM3 / RFU, TMEM33 / Fold change vs veh, TMEM33 / RFU, WDR75 / Fold change vs veh, WDR75 / RFU, AHCTF1 / Fold change vs veh, AHCTF1 / RFU, TFRC / Fold change vs veh, TFRC / RFU, ZDHHC17 / Fold change vs veh, ZDHHC17 / RFU, NOM1 / Fold change vs veh, NOM1 / RFU, ARL8B / Fold change vs veh, ARL8B / RFU, ZBTB11 / Fold change vs veh, ZBTB11 / RFU, TAMM41 / Fold change vs veh, TAMM41 / RFU, KIAA1704 /// LOC100996395 / Fold change vs veh, KIAA1704 /// LOC100996395 / RFU, ING1 / Fold change vs veh, ING1 / RFU, TRMT61B / Fold change vs veh, TRMT61B / RFU, FUBP3 / Fold change vs veh, FUBP3 / RFU, TP53 / Fold change vs veh, TP53 / RFU, TNKS2 / Fold change vs veh, TNKS2 / RFU, ZFP14 / Fold change vs veh, ZFP14 / RFU, ACTR2 / Fold change vs veh, ACTR2 / RFU, PPP3R1 / Fold change vs veh, PPP3R1 / RFU, PIK3R1 / Fold change vs veh, PIK3R1 / RFU, HNRNPA1 / Fold change vs veh, HNRNPA1 / RFU, RNF170 / Fold change vs veh, RNF170 / RFU, ZNF28 / Fold change vs veh, ZNF28 / RFU, RNGTT / Fold change vs veh, RNGTT / RFU, OGT / Fold change vs veh, OGT / RFU, BRD1 / Fold change vs veh, BRD1 / RFU, MARS / Fold change vs veh, MARS / RFU, ZNF655 / Fold change vs veh, ZNF655 / RFU, FAHD1 / Fold change vs veh, FAHD1 / RFU, BDP1 / Fold change vs veh, BDP1 / RFU, LRRCC1 / Fold change vs veh, LRRCC1 / RFU, ARID1A / Fold change vs veh, ARID1A / RFU, ZNF146 / Fold change vs veh, ZNF146 / RFU, ZNF330 / Fold change vs veh, ZNF330 / RFU, GPN3 / Fold change vs veh, GPN3 / RFU, C9orf123 / Fold change vs veh, C9orf123 / RFU, N4BP2L2 / Fold change vs veh, N4BP2L2 / RFU, ARFIP1 / Fold change vs veh, ARFIP1 / RFU, FAM179B / Fold change vs veh, FAM179B / RFU, BCL10 / Fold change vs veh, BCL10 / RFU, UHRF1BP1L / Fold change vs veh, UHRF1BP1L / RFU, BET1 / Fold change vs veh, BET1 / RFU, CNOT2 / Fold change vs veh, CNOT2 / RFU, ZNF268 / Fold change vs veh, ZNF268 / Fold change vs veh, ZNF507 / RFU, DGCR2 / Fold change vs veh, DGCR2 / RFU, WDSUB1 / Fold change vs veh, WDSUB1 / Fold change vs veh, HSP90B1 /// MIR3652 / RFU, ADSS / Fold change vs veh, ADSS / RFU, GK / Fold change vs veh, GK / RFU, ZNF148 / Fold change vs veh, ZNF148 / RFU, TAF9 / Fold change vs veh, TAF9 / RFU, SLC1A5 / Fold change vs veh, SLC1A5 / RFU, SLMO2 / Fold change vs veh, SLMO2 / RFU, ABCC4 / Fold change vs veh, ABCC4 / RFU, LOC101060439 /// RAP1B / Fold change vs veh, LOC101060439 /// RAP1B / RFU, RFX7 / Fold change vs veh, RFX7 / RFU, GTPBP10 / Fold change vs veh, GTPBP10 / RFU, CNEP1R1 / Fold change vs veh, CNEP1R1 / RFU, BIVM-ERCC5 /// ERCC5 / Fold change vs veh, BIVM-ERCC5 /// ERCC5 / RFU, ILF3 / Fold change vs veh, ILF3 / RFU 11762660_at / Fold change /veh 11762660_at / RFU VCAN (11757783_s_at) / Fold change /veh VCAN (11757783_s_at) / RFU DDX43 (11728927_at) / Fold change /veh DDX43 (11728927_at) / RFU KRT8 (11758188_x_at) / Fold change /veh KRT8 (11758188_x_at) / RFU NKD1 (11759106_at) / Fold change /veh NKD1 (11759106_at) / RFU SRD5A1 (11742802_a_at) / Fold change /veh SRD5A1 (11742802_a_at) / RFU TPSAB1 /// TPSB2 (11721975_s_at) / Fold change /veh TPSAB1 /// TPSB2 (11721975_s_at) / RFU GSTM3 (11746129_a_at) / Fold change /veh GSTM3 (11746129_a_at) / RFU IL23R (11737362_x_at) / Fold change /veh IL23R (11737362_x_at) / RFU TMEM51 (11727254_a_at) / Fold change /veh TMEM51 (11727254_a_at) / RFU PIWIL2 (11732686_x_at) / Fold change /veh PIWIL2 (11732686_x_at) / RFU ORM1 (11744905_x_at) / Fold change /veh ORM1 (11744905_x_at) / RFU CCDC152 (11743942_at) / Fold change /veh CCDC152 (11743942_at) / RFU ECM1 (11717891_a_at) / Fold change /veh ECM1 (11717891_a_at) / RFU IL23R (11748794_a_at) / Fold change /veh IL23R (11748794_a_at) / RFU TNFAIP8L3 (11732012_x_at) / Fold change /veh TNFAIP8L3 (11732012_x_at) / RFU MBOAT4 (11741988_at) / Fold change /veh MBOAT4 (11741988_at) / RFU 11764193_at / Fold change /veh 11764193_at / RFU TMEM53 (11763286_at) / Fold change /veh TMEM53 (11763286_at) / RFU MAGEB2 (11727129_at) / Fold change /veh MAGEB2 (11727129_at) / RFU TMEM200A (11744735_a_at) / Fold change /veh TMEM200A (11744735_a_at) / RFU CCDC152 (11751479_a_at) / Fold change /veh CCDC152 (11751479_a_at) / RFU FAM211A (11726209_a_at) / Fold change /veh FAM211A (11726209_a_at) / RFU RGS16 (11746705_a_at) / Fold change /veh RGS16 (11746705_a_at) / RFU VCAN (11755009_s_at) / Fold change /veh VCAN (11755009_s_at) / RFU RHOB (11743442_s_at) / Fold change /veh RHOB (11743442_s_at) / RFU RGS16 (11720943_a_at) / Fold change /veh RGS16 (11720943_a_at) / RFU RGS16 (11720944_at) / Fold change /veh RGS16 (11720944_at) / RFU, VPS4B / Fold change vs veh, VPS4B / RFU, CREB1 / Fold change vs veh, CREB1 / RFU, DNAJC13 / Fold change vs veh, DNAJC13 / RFU, GNAQ / Fold change vs veh, GNAQ / RFU, CDK5R1 / Fold change vs veh, CDK5R1 / RFU, ZRANB3 / Fold change vs veh, ZRANB3 / RFU, CUL4A / Fold change vs veh, CUL4A / RFU, CCNY / Fold change vs veh, CCNY / RFU, UFL1 / Fold change vs veh, UFL1 / RFU, COG3 / Fold change vs veh, COG3 / RFU, DIAPH2 / Fold change vs veh, DIAPH2 / RFU, SKA2 / Fold change vs veh, SKA2 / RFU, AFF3 / Fold change vs veh, AFF3 / RFU, LMF1 / Fold change vs veh, LMF1 / RFU, IPO11 / Fold change vs veh, IPO11 / RFU, DFFB / Fold change vs veh, DFFB / RFU, FOXP1 / Fold change vs veh, FOXP1 / RFU, CARD8 / Fold change vs veh, CARD8 / RFU, STRN3 / Fold change vs veh, STRN3 / RFU, ADK / Fold change vs veh, ADK / RFU, RASSF2 / Fold change vs veh, RASSF2 / RFU, WIPF1 / Fold change vs veh, WIPF1 / RFU, LARP1B / Fold change vs veh, LARP1B / RFU, RASA1 / Fold change vs veh, RASA1 / RFU, RB1 / Fold change vs veh, RB1 / RFU, PPFIA1 / Fold change vs veh, PPFIA1 / RFU, MAT2A / Fold change vs veh, MAT2A / RFU, CCT5 / Fold change vs veh, CCT5 / RFU, WDR92 / Fold change vs veh, WDR92 / RFU, CUX1 / Fold change vs veh, CUX1 / RFU, TTC7A / Fold change vs veh, TTC7A / RFU, TMEM135 / Fold change vs veh, TMEM135 / RFU, DEPTOR / Fold change vs veh, DEPTOR / RFU, CPM / Fold change vs veh, CPM / RFU, DNAJB6 / Fold change vs veh, DNAJB6 / RFU, CACNA2D3 / Fold change vs veh, CACNA2D3 / RFU, DTX4 / Fold change vs veh, DTX4 / RFU, TFCP2 / Fold change vs veh, TFCP2 / RFU, GMCL1 /// GMCL1P1 / Fold change vs veh, GMCL1 /// GMCL1P1 / RFU, AEBP2 / Fold change vs veh, AEBP2 / RFU, SNHG1 /// SNORD22 /// SNORD25 /// SNORD26 /// SNORD27 /// SNORD28 /// SNORD29 /// SNORD31 / Fold change vs veh, SNHG1 /// SNORD22 /// SNORD25 /// SNORD26 /// SNORD27 /// SNORD28 /// SNORD29 /// SNORD31 / Fold change (Aza/veh), C12orf56 (ProbeSet 11735607_a_at) / Fold change (ACY-1035/veh), C12orf56 (ProbeSet 11735607_a_at) / Fold change (Aza/veh), FGFR1OP (ProbeSet 11751329_s_at) / Fold change (ACY-1035/veh), FGFR1OP (ProbeSet 11751329_s_at) / Fold change (Aza/veh), VPS36 (ProbeSet 11739960_a_at) / Fold change (ACY-1035/veh), VPS36 (ProbeSet 11739960_a_at) / RFU SYPL1 (11715823_x_at) / Fold change /veh SYPL1 (11715823_x_at) / RFU IGFBP7 (11715501_s_at) / Fold change /veh IGFBP7 (11715501_s_at) / RFU REEP3 (11722064_at) / Fold change /veh REEP3 (11722064_at) / RFU IGLL1 (11728026_x_at) / Fold change /veh IGLL1 (11728026_x_at): dose or concentration left out as unconfirmed
Conditions: MV-4-11 cells, 48 hours

Structure (SMILES): Nc1ccc(-c2cccs2)cc1NC(=O)c1ccc2c(c1)cc(C1CC1)n2CCN1CCOCC1 [ACY-1035]
- RFU MBOAT4 (11741988_at): 8.81 RFU
